Results taken from patent US20220089602A1, “COMPOUNDS THAT INDUCE FERROPTIC CELL DEATH” (The Board of Trustees of the University of Illinois, priority 2019, published 2022).

System: HCT 116 cells
Experiment: In-gel fluorescence proteome labeling
Type: cell-based
Details: 30 min dose-dependent treatment
Procedure: Cells were harvested by centrifugation (500×g, 3 min), washed with PBS, and resuspended in RIPA lysis buffer (50 mM Tris, 150 mM NaCl, 1% Triton X-100, 0.5% sodium deoxycholate, 0.1% SDS, pH=7.4) containing 1× protease inhibitor cocktail on ice. Protein concentration was determined by the Bradford assay and lysates were stored at −20° C. until further use. Samples were resolved in a 4-20% SDS-PAGE gel (Bio-Rad) at 120 V for 70 min. After PBS washes, each gel was scanned for fluorescence signal using a Molecular Dynamics Typhoon 9400 Multilaser Scanner at the Proteomics Center at UIUC (excitation at 526 nm, green laser, high sensitivity, 530 pmt). Gels were then treated with Coomassie Blue stain (Imperial Stain, ThermoFisher) via shaking for 45 min to stain for the total protein content. Upon proteome labeling, gels were destained for 15 min-overnight on MilliQ H2O followed by imaging in a Gel Dox XR+ from Bio-Rad (ex. 470 nm, UV High filter).

CC1=CC(C)=[N+]2C1=Cc1ccc(CCC(=O)NCCCn3cc(CN4C(=O)C5CC=C([C@@H]6C[C@@H](OC(=O)CI)[C@]7(C)[C@H](C)CC[C@]8(C[C@H](O)C(=O)[C@]87O)[C@H]6C)CC5C4=O)nn3)n1[B-]2(F)F (stereo partly shown) [Compound P31]
proteome labeling selectivity: Promiscuous bioactivity
